# From patent publication US20250213572A1, “TYK2 INHIBITORS AND USES THEREOF” (Takeda Pharmaceutical Company Limited, priority 2022, published 2025)
# Key:
# [1] = system: hepatocytes; assay: Hepatocyte predicted clearance (Hep Clpred), mouse; type: in vitro ADME; conditions: in vitro
# [2] = clinical; conditions: human, in vivo
smiles,measurement,setting,value
"CNc1cc(Nc2cccn(-c3ccccn3)c2=O)nc2c(C(=O)N[C@@H]3CC[C@H]3OC)cnn12 [Compound 1, N-((1R,2R)-2-methoxycyclobutyl)-7-(methylamino)-5-((2-oxo-2H-[1,2′-bipyridin]-3-yl)amino)pyrazolo[1,5-a]pyrimidine-3-carboxamide]",Hep Clpred,[1],54 mL/min/kg
same,CL renal,[2],1 to 5 mL/min
same,Tmax,[2],3 to 5 h
same,AUC(0-inf),[2]; 75 mg,589 to 8370 ng·h/mL
same,Cmax,[2]; 75 mg,21.6 to 237 ng/mL
same,AUC(0-inf),[2]; 100 mg,10700 ng·h/mL
same,AUC(0-inf),[2]; 150 mg,12200 ng·h/mL
same,Cmax,[2]; 200 mg,232 to 250 ng/mL
